Results on three compounds are retold here after ChEMBL document CHEMBL1681686, “Discovery of N-methyl-1-(1-phenylcyclohexyl)methanamine, a novel triple serotonin, norepinephrine, and dopamine reuptake inhibitor” (Bioorg Med Chem Lett, 2011).

Holding throughout (format): ADME, organism-based
Settings in all cases: in vivo; call rule not given here

Series [1] concerns Brain. The series is described as follows: Drug uptake in mouse brain at 30 mg/kg, po. Also on record: dose 30 mg/kg, route oral.
The subject of series [2] is Plasma. The series is described as follows: Drug uptake in mouse plasma at 10 mg/kg, po. Details: dose 10 mg/kg, route oral.
In series [3] the test system is Plasma. As to the kind of experiment: Drug uptake in mouse plasma at 30 mg/kg, po. Details: dose 30 mg/kg, route oral.
In series [4] the test system is Brain. As to the kind of experiment: Drug uptake in mouse brain at 3 mg/kg, po. Also on record: dose 3 mg/kg, route oral.
In series [5] the test system is Brain. The series is described as follows: Drug uptake in mouse brain at 10 mg/kg, po. Details: dose 10 mg/kg, route oral.
For series [6], the system named is Plasma. The series is described as follows: Drug uptake in mouse plasma at 3 mg/kg, po. Details: dose 3 mg/kg, route oral.

Take `CNCC1(c2ccc(Cl)c(Cl)c2)CCCCC1`: the Drug uptake result in the series on Brain [1] was “Active”.
For the compound `CNCC1(c2ccc(Cl)c(Cl)c2)CCCCC1.Cl`, the Drug uptake with Brain [1] is 7464 ng/g; in the series on Plasma [2] it was 50 ng/mL; with Plasma [3], 227 ng/mL; in the series with Brain [4] it was 546 ng/g; in the series with Brain [5], 2166 ng/g; in the series with Plasma [6], 11 ng/mL.
Turning to `CNCC1(c2ccc3ccccc3c2)CCCCC1.Cl`, the Drug uptake was determined as 2175 ng/g with Brain [1]; 21 ng/mL in the series with Plasma [2]; 120 ng/mL with Plasma [3]; 123 ng/g in the series with Brain [4]; 306 ng/g in the series with Brain [5]; 8 ng/mL in the series with Plasma [6].
